According to patent publication EP0227941A1, “1-Phenyl-4-(1H)-pyridazinimines, their preparation and use” (BASF Aktiengesellschaft, priority 1985, dated 1987):
Counter-ions that a name gives are not always drawn. Like-named read-outs stand apart in the source and are kept apart here.

How the values were obtained:
Format in all cases: biochemical, Ratten
[1] = target: T1, Synaptosomen-Aufnahme von Serotonin (Rattus norvegicus, UniProt P31652); assay: Inhibition of serotonin uptake in rat brain synaptosomes (cortex, 3H-serotonin); conditions: for Hemmung der Synaptosomen-Aufnahme von Serotonin r.W. (relative Wirksamkeit): Quotient IC50 Referenzverbindung / IC50 Beispielverbindung
T1 construct: Durch differentielle Zentrifugation wurden Synaptosomen erhalten; from tissue; host or cells: rat brain cortex synaptosomes
From the text: (§1) Hemmung der Neurotransmitter-Aufnahme in Rattenhirn-Synaptosomen
(§2) Hippocampus und Cortex aus Rattenhirn wurden präpariert und in 0,32 M Sucrose-Lösung homogenisiert. Durch differentielle Zentrifugation wurden Synaptosomen erhalten, die in Pufferlösung suspendiert wurden. Die Synaptosomen sind in der Lage, aus dem umgebenden Medium zugefügte Neurotransmittersubstanzen (z.B. Noradrenalin oder Serotonin) aktiv aufzunehmen. Dieser Vorgang ist durch uptake-Hemmer konzentrationsabhängig antagonisierbar. Die Synaptosomen wurden mit den Testsubstanzen in verschiedenen Konzentrationen versetzt und anschließend mit ³H-Noradrenalin (Hippocampus) bzw. ³H-Serotonin (Cortex) bei 37°C inkubiert. Die Substratkonzentration betrug ca. 10 nM. Nach Stoppen der Aufnahme durch Verdünnen mit eisgekühlter Pufferlösung wurden die Synaptosomen abzentrifugiert und die ³H-Aktivität im Sediment gemessen. Der Blindwert wird durch Inkubation bei 0°C ermittelt.
(§3) Aus den verschiedenen Inhibitor-Konzentrationen gegen Kontrolle ermittelten Hemmwerten wurde durch lineare Regression nach logit-log-Transformation die mittlere Hemmkonzentration IC₅₀ berechnet.

Monoaminoxidase Typ B = target: T2, Monoaminoxidase Typ B (Rattus norvegicus, UniProt P19643); assay: Inhibition of monoamine oxidase type B in rat brain homogenate (14C-phenylethylamine); conditions: for Hemmung der Monoaminoxidase Typ B r.W. (relative Wirksamkeit): Quotient IC50 Referenzverbindung / IC50 Beispielverbindung
T2 construct: Die Bestimmung der Monoaminoxidase erfolgte in verdünntem Rattenhirnhomogenat; from tissue; host or cells: rat brain homogenate
T2 sequence (P19643 1-520): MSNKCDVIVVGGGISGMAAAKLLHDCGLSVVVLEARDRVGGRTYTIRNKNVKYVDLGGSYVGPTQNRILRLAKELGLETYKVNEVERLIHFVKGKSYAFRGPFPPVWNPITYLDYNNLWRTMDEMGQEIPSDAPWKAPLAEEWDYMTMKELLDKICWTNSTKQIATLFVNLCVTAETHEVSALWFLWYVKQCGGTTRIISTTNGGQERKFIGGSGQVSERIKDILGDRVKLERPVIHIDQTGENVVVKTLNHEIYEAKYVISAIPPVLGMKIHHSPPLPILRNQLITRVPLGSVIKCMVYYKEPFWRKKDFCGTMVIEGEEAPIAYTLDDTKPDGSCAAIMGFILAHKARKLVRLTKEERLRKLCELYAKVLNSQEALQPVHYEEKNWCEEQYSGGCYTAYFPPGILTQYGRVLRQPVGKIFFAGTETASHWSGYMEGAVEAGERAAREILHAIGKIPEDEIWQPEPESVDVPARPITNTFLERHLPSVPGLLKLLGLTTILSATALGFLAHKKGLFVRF
Description: (§4) Hemmung der Monoaminoxidase
(§5) Die Bestimmung der Monoaminoxidase erfolgte in verdünntem Rattenhirnhomogenat dem 1. unterschiedliche Konzentrationen der zu prüfenden Testsubstanzen und 2. für die Bestimmung der Monoaminoxidase Typ A ¹⁴C-Tryptamin in einer Konzentration von 0,4 µmol, zur Bestimmung der Monoaminoxidase Typ B ¹⁴C-Phenylethylamin in einer Konzentration von 0,25 µmol zugesetzt wurde. Dieser Ansatz wurde 20 Minuten bei 37°C inkubiert. Die Reaktion wird durch 0,1 n HCl gestoppt und die Reaktionsprodukte nach Extraktion in Toluol-Szintillator (PPO + POPOP in Toluol) bestimmt. Der Blindwert wird in analogen Ansätzen mit einer Inkubationszeit von t = 0 Minuten bestimmt.
(§6) Aus den bei den verschiedenen Inhibitorkonzentrationen gegen die Kontrolle ermittelten Hemmwerten wurde durch lineare Regression nach logit-log-Transformation die mittlere Hemmkonzentration (IC₅₀) berechnet.

Monoaminoxidase Typ A = target: T3, Monoaminoxidase Typ A (Rattus norvegicus, UniProt P21396); assay: Inhibition of monoamine oxidase type A in rat brain homogenate (14C-tryptamine); conditions: for Hemmung der Monoaminoxidase Typ A r.W. (relative Wirksamkeit): Quotient IC50 Referenzverbindung / IC50 Beispielverbindung
T3 construct: Die Bestimmung der Monoaminoxidase erfolgte in verdünntem Rattenhirnhomogenat; from tissue; host or cells: rat brain homogenate
T3 sequence (P21396 1-526): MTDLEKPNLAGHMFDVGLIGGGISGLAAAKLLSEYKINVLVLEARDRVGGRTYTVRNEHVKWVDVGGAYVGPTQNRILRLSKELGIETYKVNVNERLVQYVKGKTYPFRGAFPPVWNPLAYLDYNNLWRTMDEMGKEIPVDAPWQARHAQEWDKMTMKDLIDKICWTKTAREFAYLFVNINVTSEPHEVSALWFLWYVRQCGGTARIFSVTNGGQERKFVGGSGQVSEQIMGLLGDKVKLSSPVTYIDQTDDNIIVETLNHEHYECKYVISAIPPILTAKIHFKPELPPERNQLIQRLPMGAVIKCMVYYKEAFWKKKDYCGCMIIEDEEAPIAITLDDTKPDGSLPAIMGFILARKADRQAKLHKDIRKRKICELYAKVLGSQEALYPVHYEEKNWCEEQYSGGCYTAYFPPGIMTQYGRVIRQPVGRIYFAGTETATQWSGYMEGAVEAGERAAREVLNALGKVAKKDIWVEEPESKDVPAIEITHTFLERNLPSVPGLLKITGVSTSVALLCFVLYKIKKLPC
Description: as §4, §5, §6

[2] = target: T4, Synaptosomen-Aufnahme von Noradrenalin (Rattus norvegicus, UniProt Q63380); assay: Inhibition of noradrenaline uptake in rat brain synaptosomes (hippocampus, 3H-noradrenaline); conditions: for Hemmung der Synaptosomen-Aufnahme von Noradrenalin r.W. (relative Wirksamkeit): Quotient IC50 Referenzverbindung / IC50 Beispielverbindung
T4 construct: Durch differentielle Zentrifugation wurden Synaptosomen erhalten; from tissue; host or cells: rat brain hippocampus synaptosomes
From the text: as §1, §2, §3

[3] = rat cortex synaptosomes, 3H-Serotonin ca. 10 nM, 37°C, read-out: Hemmung der Synaptosomen-Aufnahme von Serotonin IC50
[4] = rat brain homogenate, 14C-Phenylethylamin, 20 min 37°C, read-out: Hemmung der Monoaminoxidase Typ B IC50
[5] = rat brain homogenate, 14C-Tryptamin, 20 min 37°C, read-out: Hemmung der Monoaminoxidase Typ A IC50
[6] = rat hippocampus synaptosomes, 3H-Noradrenalin ca. 10 nM, 37°C, read-out: Hemmung der Synaptosomen-Aufnahme von Noradrenalin IC50

T1 sequence (P31652 whole entry): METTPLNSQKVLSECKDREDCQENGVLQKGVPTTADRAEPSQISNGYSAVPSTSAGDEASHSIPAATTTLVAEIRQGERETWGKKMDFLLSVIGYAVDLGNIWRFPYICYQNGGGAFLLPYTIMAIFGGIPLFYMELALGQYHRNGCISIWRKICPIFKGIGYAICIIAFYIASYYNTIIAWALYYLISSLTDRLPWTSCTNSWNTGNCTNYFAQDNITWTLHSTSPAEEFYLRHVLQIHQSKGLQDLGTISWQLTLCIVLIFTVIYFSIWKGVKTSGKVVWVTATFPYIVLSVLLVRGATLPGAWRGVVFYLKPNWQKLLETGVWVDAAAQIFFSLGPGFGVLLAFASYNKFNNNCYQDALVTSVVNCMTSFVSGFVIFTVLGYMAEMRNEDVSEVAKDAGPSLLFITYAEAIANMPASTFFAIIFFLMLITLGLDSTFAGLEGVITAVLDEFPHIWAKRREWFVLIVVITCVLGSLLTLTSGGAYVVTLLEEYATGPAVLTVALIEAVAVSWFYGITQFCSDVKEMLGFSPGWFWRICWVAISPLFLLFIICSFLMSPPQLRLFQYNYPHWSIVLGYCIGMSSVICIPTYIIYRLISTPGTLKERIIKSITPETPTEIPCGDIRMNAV
T4 sequence (Q63380 1-617): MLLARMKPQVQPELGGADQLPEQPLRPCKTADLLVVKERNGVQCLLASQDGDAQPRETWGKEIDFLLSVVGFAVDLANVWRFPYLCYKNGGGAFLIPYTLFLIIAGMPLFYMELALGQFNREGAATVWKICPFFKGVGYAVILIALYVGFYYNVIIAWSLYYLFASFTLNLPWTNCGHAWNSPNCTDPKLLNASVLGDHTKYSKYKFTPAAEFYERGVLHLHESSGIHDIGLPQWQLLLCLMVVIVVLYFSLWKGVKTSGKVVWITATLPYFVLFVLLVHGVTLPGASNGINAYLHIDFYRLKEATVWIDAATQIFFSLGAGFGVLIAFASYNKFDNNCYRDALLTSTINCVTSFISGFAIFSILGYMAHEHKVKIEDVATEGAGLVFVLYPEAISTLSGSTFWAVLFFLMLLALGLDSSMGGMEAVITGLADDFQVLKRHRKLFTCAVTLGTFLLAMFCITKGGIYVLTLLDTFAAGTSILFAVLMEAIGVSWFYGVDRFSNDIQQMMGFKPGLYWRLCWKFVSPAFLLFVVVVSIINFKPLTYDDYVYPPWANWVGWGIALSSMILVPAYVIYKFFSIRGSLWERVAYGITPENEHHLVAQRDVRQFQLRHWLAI

| Structure (SMILES) | Hemmung der Synaptosomen-Aufnahme von Serotonin r.W. (relative Wirksamkeit) [1] | IC50 [1, 3] [nM] | Hemmung der Monoaminoxidase Typ B r.W. (relative Wirksamkeit) (Monoaminoxidase Typ B) | IC50 (Monoaminoxidase Typ B; [4]) [nM] | Hemmung der Monoaminoxidase Typ A r.W. (relative Wirksamkeit) (Monoaminoxidase Typ A) | IC50 (Monoaminoxidase Typ A; [5]) [nM] | Hemmung der Synaptosomen-Aufnahme von Noradrenalin r.W. (relative Wirksamkeit) [2] | IC50 [2, 6] [nM] | IC50 [1] [nM] | IC50 (Monoaminoxidase Typ B) [nM] | IC50 (Monoaminoxidase Typ A) [nM] | IC50 [2] [nM] | Hemmung der Monoaminoxidase A, Wirksamkeit der Vergleichssubstanz übertroffen (fach) (Monoaminoxidase Typ A; fold versus comparison substance) |
| --- | --- | --- | --- | --- | --- | --- | --- | --- | --- | --- | --- | --- | --- |
| N=c1ccn(-c2ccc(Br)c(Br)c2)nc1 [Beispiel 18, 1-(3,4-Dibromphenyl)-4-(1H)-pyridazinimin-hydrochlorid] | 261 | 2.8 | 25.8 | 1900 | 4.8 | 870 | 6.1 | 5.1 | – | – | – | – | – |
| N=c1ccn(-c2ccc(C(F)(F)F)cc2)nc1 [Beispiel 32, 1-(4-Trifluormethylphenyl)-4-(1H)-pyridazinimin-hydrobromid] | 16.6 | 44 | 12.2 | 4000 | 0.6 | 7000 | 0.1 | 700 | – | – | – | – | – |
| N=c1ccn(-c2ccc(Cl)c(Br)c2)nc1 [Beispiel 16, 1-(3-Brom-4-chlorphenyl)-4-(1H)-pyridazinimin-hydrochlorid] | 109 | 6.7 | 18.1 | 2700 | 2.0 | 2140 | 2.5 | 13 | – | – | – | – | – |
| COc1cc(-n2ccc(=N)cn2)ccc1C.Cl [Beispiel 10, 1-(3-Methoxy-4-methylphenyl)-4-(1H)-pyridazinimin-hydrochlorid] | 15.2 | – | 4.9 | – | 3.4 | – | 0.3 | – | 48 | 10000 | 1200 | 110 | – |
| Cc1ccc(-n2ccc(=N)cn2)cc1Br [Beispiel 13, 1-(3-Brom-4-methylphenyl)-4-(1H)-pyridazinimin-hydrochlorid] | 73.0 | 10 | 39.8 | 1200 | 7.0 | 590 | 1.2 | 26 | – | – | – | – | ≤ 7 |
| N=c1ccn(-c2ccc(Br)cc2)nc1 [Beispiel 8, 1-(4-Bromphenyl)-4-(1H)-pyridazinimin-hydrochlorid] | 56.2 | 13 | 4.9 | 10000 | 1.4 | 2900 | 0.9 | 34 | – | – | – | – | – |
| Cc1ccc(-n2ccc(=N)cn2)cc1Cl [Beispiel 42, 1-(3-Chlor-4-methylphenyl)-4-(1H)-pyridazinimin-hydrochlorid] | 36.5 | 20 | 24.5 | 2000 | 5.6 | 750 | 2.1 | 15 | – | – | – | – | – |
